Patent publication US20230109801A1 (Blue Oak Pharmaceuticals, Inc., priority 2020, published 2023)
Structures can show the parent of a compound that is named as a salt.

System: mice
Assay: SmartCube in vivo neuropharmacological behavioral assay
Details: for minimal effective dose: Mus musculus, ip, dose having 50% or more total activity in SmartCube, i.p., read-out: MED (minimal effective dose); for AD: antidepressant, percent probability / AG: analgesic, percent probability / AP: antipsychotic, percent probability / AX: anxiolytic, percent probability / CE: cognitive enhancer, percent probability / HA: hallucinogenic, percent probability / MS: mood stabilizer, percent probability / PS, percent probability / SD: sedative hypnotic, percent probability / SE: side effects, percent probability / UN: uncharacterized CNS activity, percent probability / XG: anxiogenic, percent probability: SmartCube, i.p. 15 min before test, at the MED
Experimental: The compounds were evaluated for their CNS related properties (e.g., the treatment, prevention or diagnosis of CNS or CNS-related disorders and/or amelioration of symptoms) using neuropharmacological screening methods described in S. L. Roberts et al., Front. Neurosci. 2011, 5:103 (hereinafter referred to as “Roberts,” the contents of which are incorporated herein by reference in their entirety).
According to Roberts, intact systems are useful in detecting improvement in disease-relevant endpoints, because psychiatric diseases generally result from disorders of cell-cell communication or circuitry. The endpoints are typically behavioral in nature, often requiring human observation and interpretation. In order to test multiple compounds for behavioral effects relevant to neurological and psychiatric diseases and disorders, PsychoGenics, Inc. (Paramus, N.J. “PGI”) developed SmartCube®, an automated system in which behaviors of compound-treated mice are captured by digital video and analyzed with computer algorithms to facilitate testing of multiple compounds for behavioral effects relevant to psychiatric disease. (D. Brunner et al., Drug Discov. Today 2002, 7:S107-S112; Alexandrov et al., Eur. J. Pharmacol. 2015, 753:127-134; the contents of each of which are incorporated herein by reference in their entirety).
The SmartCube® system is described in Example 2.2 of U.S. Pat. No. 9,758,529 and Example 289 of WIPO Publication No. WO2018/023070, the contents of each of which are incorporated herein by reference in their entirety.
According to the present disclosure, compounds identified may be evaluated using the SmartCube® system. The results of such analysis correlate certain patterns or combinations of behaviors to CNS effects along a percent probability scale of 0-100 where zero (O) reflects the limit of quantitation (LOQ).
The compounds of the present disclosure were evaluated for their CNS related properties (e.g., the treatment, prevention or diagnosis of CNS or CNS-related disorders and/or amelioration of symptoms) using neuropharmacological screening methods described in S. L. Roberts et al., Front. Neurosci. 2011, 5:103 (hereinafter referred to as “Roberts,” the contents of which are incorporated herein by reference in their entirety).
The SmartCube® system described herein was utilized to compare the behavioral signature of a test compound to a database of behavioral signatures obtained using a large set of diverse reference compounds (including but not limited to antipsychotics, anxiolytics, antidepressants and bipolar disorder medicine), thereby predicting the neuropharmacological effects of a test compound by similarity to major classes of compounds. It produces an activity signature indicating the probability that the activity of the test compound at the administered dose matches a given class of neuropharmacological agents. The test compound is simultaneously compared against multiple classes of agents; thus, a separate probability is generated for each behavioral effect measured (such as but not limited to anxiolytic activity and analgesic activity).
The compounds of the present disclosure were dissolved in a mixture of Pharmasolve™ (N-methyl-2-pyrrolidone (NMP)) and were injected i.p. 15 min. before the behavioral test. For each compound, injections were administered at different dose levels (e.g., 0.3, 1, 3, 10 and 30 mg per kg (mpk)). A compound's minimal effective dose (MED; see Table 3) is a measure of the compound's potency. The MED was defined as the dose (in mpk) having 50% or more total activity in SmartCube®. For each behavioral effect measured, results at the MED are presented. CNS activities of the compounds were recorded (see Table 2). In Table 1, a key to the percent probabilities (probability×100) for each behavioral effect (“X”) are defined provided, where LOQ is the limit of quantification.

| Compound | minimal effective dose | AD: antidepressant, percent probability | AG: analgesic, percent probability | AP: antipsychotic, percent probability | AX: anxiolytic, percent probability | CE: cognitive enhancer, percent probability | HA: hallucinogenic, percent probability | MS: mood stabilizer, percent probability | PS, percent probability | SD: sedative hypnotic, percent probability | SE: side effects, percent probability | UN: uncharacterized CNS activity, percent probability | XG: anxiogenic, percent probability |
| --- | --- | --- | --- | --- | --- | --- | --- | --- | --- | --- | --- | --- | --- |
| COc1cccc2c1C1C=CC2N1 (stereo not drawn) [Compound 16, 3-Methoxy-11-azatricyclo[6.2.1.0^2,7]undeca-2,4,6,9-tetraene hydrochloride] | > 30 mg/kg | + (LOQ ≤ X < 5%) | + (LOQ ≤ X < 5%) | + (LOQ ≤ X < 5%) | ++ (5% ≤ X < 25%) | + (LOQ ≤ X < 5%) | + (LOQ ≤ X < 5%) | + (LOQ ≤ X < 5%) | + (LOQ ≤ X < 5%) | + (LOQ ≤ X < 5%) | + (LOQ ≤ X < 5%) | ++ (5% ≤ X < 25%) | + (LOQ ≤ X < 5%) |
| COc1cccc2c1C1CCC2N1C(C)C (stereo not drawn) [Compound 18, 3-Methoxy-11-(propan-2-yl)-11-azatricyclo[6.2.1.0^2,7]undeca-2,4,6-triene hydrochloride] | 10 to 30 mg/kg | ++ (5% ≤ X < 25%) | + (LOQ ≤ X < 5%) | + (LOQ ≤ X < 5%) | ++ (5% ≤ X < 25%) | ++ (5% ≤ X < 25%) | + (LOQ ≤ X < 5%) | + (LOQ ≤ X < 5%) | + (LOQ ≤ X < 5%) | ++ (5% ≤ X < 25%) | +++ (25% ≤ X < 50%) | + (LOQ ≤ X < 5%) | + (LOQ ≤ X < 5%) |
| Cc1ccc2c(c1)C1CCC2N1C(C)C (stereo not drawn) [Compound 21, 4-Methyl-11-(propan-2-yl)-11-azatricyclo[6.2.1.0^2,7]undeca-2,4,6-triene hydrochloride] | 10 to 30 mg/kg | ++ (5% ≤ X < 25%) | + (LOQ ≤ X < 5%) | + (LOQ ≤ X < 5%) | ++ (5% ≤ X < 25%) | + (LOQ ≤ X < 5%) | + (LOQ ≤ X < 5%) | + (LOQ ≤ X < 5%) | + (LOQ ≤ X < 5%) | + (LOQ ≤ X < 5%) | ++++ (50% ≤ X <1 00%) | ++ (5% ≤ X < 25%) | + (LOQ ≤ X < 5%) |
| CC(C)N1C2CCC1c1cc(Cl)ccc12 (stereo not drawn) [Compound 28, 4-Chloro-11-(propan-2-yl)-11-azatricyclo[6.2.1.0^2,7]undeca-2,4,6-triene hydrochloride] | > 30 mg/kg | +++ (25% ≤ X < 50%) | + (LOQ ≤ X < 5%) | + (LOQ ≤ X < 5%) | ++ (5% ≤ X < 25%) | + (LOQ ≤ X < 5%) | + (LOQ ≤ X < 5%) | + (LOQ ≤ X < 5%) | + (LOQ ≤ X < 5%) | + (LOQ ≤ X < 5%) | ++ (5% ≤ X < 25%) | ++ (5% ≤ X < 25%) | + (LOQ ≤ X < 5%) |
| Cc1cccc2c1C1CCC2N1C(C)C (stereo not drawn) [Compound 31, 3-Methyl-11-(propan-2-yl)-11-azatricyclo[6.2.1.0^2,7]undeca-2,4,6-triene hydrochloride] | 10 to 30 mg/kg | ++ (5% ≤ X < 25%) | ++ (5% ≤ X < 25%) | + (LOQ ≤ X < 5%) | ++ (5% ≤ X < 25%) | + (LOQ ≤ X < 5%) | + (LOQ ≤ X < 5%) | + (LOQ ≤ X < 5%) | + (LOQ ≤ X < 5%) | ++ (5% ≤ X < 25%) | + (LOQ ≤ X < 5%) | +++ (25% ≤ X < 50%) | + (LOQ ≤ X < 5%) |
| CC[C@@H](C)N1C2CCC1c1ccccc12 [Compound 33, 11-[(2R)-Butan-2-yl]-11-azatricyclo[6.2.1.0^2,7]undeca-2,4,6-triene hydrochloride] | 1 to 10 mg/kg | + (LOQ ≤ X < 5%) | + (LOQ ≤ X < 5%) | + (LOQ ≤ X < 5%) | ++ (5% ≤ X < 25%) | + (LOQ ≤ X < 5%) | + (LOQ ≤ X < 5%) | + (LOQ ≤ X < 5%) | ++ (5% ≤ X < 25%) | + (LOQ ≤ X < 5%) | + (LOQ ≤ X < 5%) | ++++ (50% ≤ X <1 00%) | + (LOQ ≤ X < 5%) |
| CC(C)N1C2CCC1c1c(F)ccc(F)c12 [Compound 34, 3,6-Difluoro-11-(propan-2-yl)-11-azatricyclo[6.2.1.0^2,7]undeca-2,4,6-triene hydrochloride] | > 30 mg/kg | + (LOQ ≤ X < 5%) | + (LOQ ≤ X < 5%) | + (LOQ ≤ X < 5%) | + (LOQ ≤ X < 5%) | + (LOQ ≤ X < 5%) | + (LOQ ≤ X < 5%) | + (LOQ ≤ X < 5%) | + (LOQ ≤ X < 5%) | + (LOQ ≤ X < 5%) | + (LOQ ≤ X < 5%) | + (LOQ ≤ X < 5%) | + (LOQ ≤ X < 5%) |
| COc1ccc2c(c1)C1CCC2N1C(C)C (stereo not drawn) [Compound 35, 4-Methoxy-11-(propan-2-yl)-11-azatricyclo[6.2.1.0^2,7]undeca-2,4,6-triene] | 1 to 10 mg/kg | + (LOQ ≤ X < 5%) | + (LOQ ≤ X < 5%) | + (LOQ ≤ X < 5%) | ++ (5% ≤ X < 25%) | + (LOQ ≤ X < 5%) | + (LOQ ≤ X < 5%) | + (LOQ ≤ X < 5%) | + (LOQ ≤ X < 5%) | +++ (25% ≤ X < 50%) | + (LOQ ≤ X < 5%) | ++ (5% ≤ X < 25%) | + (LOQ ≤ X < 5%) |
| c1ccc2c(c1)C1CCC2N1 [Compound 41, hydrochloride] | 10 to 30 mg/kg | + (LOQ ≤ X < 5%) | ++ (5% ≤ X < 25%) | + (LOQ ≤ X < 5%) | ++ (5% ≤ X < 25%) | ++ (5% ≤ X < 25%) | + (LOQ ≤ X < 5%) | + (LOQ ≤ X < 5%) | + (LOQ ≤ X < 5%) | + (LOQ ≤ X < 5%) | + (LOQ ≤ X < 5%) | ++ (5% ≤ X < 25%) | + (LOQ ≤ X < 5%) |
